Literature values, collected in US8571804B2, “Disease treatment by predicting drug association” (Pharnext, priority 2007, dated 2013).

Tests used:
[1] = tested on: PMP22-transgenic CMT1A rat model

In the case of `O=C1O[C@H]([C@@H](O)CO)C(O)=C1O` [ascorbic acid], the clinical features (CMT animal models) is given as “improve clinical features”.

In the case of `CN(C)c1ccc([C@H]2C[C@]3(C)[C@@H](CC[C@]3(O)CCCO)[C@@H]3CCC4=CC(=O)CCC4=C32)cc1` [onapristone], the clinical symptoms ([1]; compared with placebo-treated controls) is given as “significantly improved clinical symptoms” and the “expression of PMP22 protein” value ([1]; transgenic rodents, antiprogestin treatment) is given as “decreased expression of PMP22 protein”.
